PubChem BioAssay AID2060909 (Molecular Pharmacology Branch, DTP, NCI, 2025)

Test system: 362531-283-R-J2-PDC complex spheroid viability
Test: Anticancer human tumor 362531-283-R-J2-PDC patient-derived colon adenocarcinoma cell line growth inhibition [RAS]
Conditions: for viability, T/C: stronger effect = lower value; active = viability on the fitted dose curve at most 10% of control; inactive = the rest
Method in brief: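 Tumour cells grown as complex spheroids with HUVEC endothelial cells and mesenchymal stem cells, treated with RAS pathway inhibitor combinations. Each agent spans half-log steps from near clinical Cmax, or 10 microM where Cmax is unknown.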

[1] = curve of first compound, second compound 0.000949 µM
[2] = curve of first compound, second compound 0.003 µM
[3] = curve of first compound, second compound 0.00949 µM
[4] = curve of first compound, second compound 0.03 µM
[5] = curve of first compound, second compound 0.0949 µM
[6] = curve of first compound, second compound 0.3 µM
[7] = second compound 0.000949 µM, first compound 0.0316 µM
[8] = second compound 0.000949 µM, first compound 0.1 µM
[9] = second compound 0.000949 µM, first compound 0.316 µM
[10] = second compound 0.000949 µM, first compound 1 µM
[11] = second compound 0.003 µM, first compound 0.0316 µM
[12] = second compound 0.003 µM, first compound 0.1 µM
[13] = second compound 0.003 µM, first compound 0.316 µM
[14] = second compound 0.003 µM, first compound 1 µM
[15] = second compound 0.00949 µM, first compound 0.0316 µM
[16] = second compound 0.00949 µM, first compound 0.1 µM
[17] = second compound 0.00949 µM, first compound 0.316 µM
[18] = second compound 0.00949 µM, first compound 1 µM
[19] = second compound 0.03 µM, first compound 0.0316 µM
[20] = second compound 0.03 µM, first compound 0.1 µM
[21] = second compound 0.03 µM, first compound 0.316 µM
[22] = second compound 0.03 µM, first compound 1 µM
[23] = second compound 0.0949 µM, first compound 0.0316 µM
[24] = second compound 0.0949 µM, first compound 0.1 µM
[25] = second compound 0.0949 µM, first compound 0.316 µM
[26] = second compound 0.0949 µM, first compound 1 µM
[27] = second compound 0.3 µM, first compound 0.0316 µM
[28] = second compound 0.3 µM, first compound 0.1 µM
[29] = second compound 0.3 µM, first compound 0.316 µM
[30] = second compound 0.3 µM, first compound 1 µM
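Note: spheroids exposed to the agents for 7 days before readout.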
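Throughout, for viability, T/C: luminescence viability as percent of DMSO vehicle control wells.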

O=C(c1ccc(F)c(F)c1Nc1ccc(I)cc1F)N1CC(O)([C@@H]2CCCCN2)C1 + CCn1c(-c2cccnc2C(C)OC)c2c3cc(ccc31)N1CCOC(CC(NC(=O)C(C(C)C)N(C)C(=O)C3(F)CCN(C(=O)C#CC(C)(C)N(C)C)CC3)C(=O)N3CCCC(N3)C(=O)OCC(C)(C)C2)C1
0.628 µM: IC50 [1]
0.684 µM: IC50 [4]
0.537 µM: IC50 [2]
inactive: viability, T/C (second compound 0.000949 µM, first compound 0.00316 µM) 94% | viability, T/C (second compound 0.000949 µM, first compound 0.01 µM) 94.9% | viability, T/C [7] 101% | viability, T/C [8] 91.3% | viability, T/C [9] 88% | viability, T/C [10] 24.4% | viability, T/C (second compound 0.003 µM, first compound 0.00316 µM) 102% | viability, T/C (second compound 0.003 µM, first compound 0.01 µM) 108% | viability, T/C [11] 107% | viability, T/C [12] 83.2% | viability, T/C [13] 81.8% | viability, T/C [14] 18.4% | viability, T/C (second compound 0.00949 µM, first compound 0.00316 µM) 86% | viability, T/C (second compound 0.00949 µM, first compound 0.01 µM) 108% | viability, T/C [15] 102% | viability, T/C [16] 88.8% | viability, T/C [17] 82.1% | viability, T/C [18] 20.9% | viability, T/C (second compound 0.03 µM, first compound 0.00316 µM) 97.7% | viability, T/C (second compound 0.03 µM, first compound 0.01 µM) 98.6% | viability, T/C [19] 104% | viability, T/C [20] 91.2% | viability, T/C [21] 99% | viability, T/C [22] 26.4% | viability, T/C (second compound 0.0949 µM, first compound 0.00316 µM) 105% | viability, T/C (second compound 0.0949 µM, first compound 0.01 µM) 103% | viability, T/C [23] 103% | viability, T/C [24] 81.8% | viability, T/C [25] 86.8% | viability, T/C [26] 22.3% | viability, T/C (second compound 0.3 µM, first compound 0.00316 µM) 89% | viability, T/C (second compound 0.3 µM, first compound 0.01 µM) 90.8% | viability, T/C [27] 99% | viability, T/C [28] 82% | viability, T/C [29] 88.2% | viability, T/C [30] 20.3%
0.604 µM: IC50 [6]
0.573 µM: IC50 [3]
0.58 µM: IC50 [5]

CCC(CC)c1cc(NC2CCC(N)C2)n2nccc2n1 (stereo not drawn) + CCn1c(-c2cccnc2C(C)OC)c2c3cc(ccc31)N1CCOC(CC(NC(=O)C(C(C)C)N(C)C(=O)C3(F)CCN(C(=O)C#CC(C)(C)N(C)C)CC3)C(=O)N3CCCC(N3)C(=O)OCC(C)(C)C2)C1
4.68 µM: IC50 [5]
4.5 µM: IC50 [2]
4.52 µM: IC50 [1]
4.34 µM: IC50 [3]
4.95 µM: IC50 [6]
active: viability, T/C (second compound 0.000949 µM, first compound 10 µM) 3.98% | viability, T/C (second compound 0.003 µM, first compound 10 µM) 3.44% | viability, T/C (second compound 0.00949 µM, first compound 10 µM) 3.91% | viability, T/C (second compound 0.03 µM, first compound 10 µM) 4.25% | viability, T/C (second compound 0.0949 µM, first compound 10 µM) 4.42% | viability, T/C (second compound 0.3 µM, first compound 10 µM) 4.23%
inactive: viability, T/C [7] 99.5% | viability, T/C [8] 111% | viability, T/C [9] 98.1% | viability, T/C [10] 98.4% | viability, T/C (second compound 0.000949 µM, first compound 3.16 µM) 70.5% | viability, T/C [11] 105% | viability, T/C [12] 101% | viability, T/C [13] 99.9% | viability, T/C [14] 101% | viability, T/C (second compound 0.003 µM, first compound 3.16 µM) 70.8% | viability, T/C [15] 103% | viability, T/C [16] 116% | viability, T/C [17] 97.9% | viability, T/C [18] 96.5% | viability, T/C (second compound 0.00949 µM, first compound 3.16 µM) 67.2% | viability, T/C [19] 102% | viability, T/C [20] 104% | viability, T/C [21] 95.8% | viability, T/C [22] 89% | viability, T/C (second compound 0.03 µM, first compound 3.16 µM) 76.8% | viability, T/C [23] 94.3% | viability, T/C [24] 102% | viability, T/C [25] 93.7% | viability, T/C [26] 94.8% | viability, T/C (second compound 0.0949 µM, first compound 3.16 µM) 73.7% | viability, T/C [27] 99.2% | viability, T/C [28] 105% | viability, T/C [29] 100% | viability, T/C [30] 91.8% | viability, T/C (second compound 0.3 µM, first compound 3.16 µM) 80.8%
4.72 µM: IC50 [4]

NC1c2ccccc2OC12CCN(c1cnc3c(N4CCCc5ncccc54)n[nH]c3n1)CC2 (stereo not drawn) + C=CC(=O)N1CCN(c2nc(OCC3CCCN3C)nc3c(F)c(-c4nc(N)cc(C)c4C(F)(F)F)c(Cl)cc23)C(C)C1
8.02 µM: IC50 (curve of first compound, second compound 1 µM)
4.67 µM: IC50 (curve of first compound, second compound 0.0316 µM)
6.19 µM: IC50 (curve of first compound, second compound 0.1 µM)
inactive: viability, T/C (second compound 0.00316 µM, first compound 0.0316 µM) 102% | viability, T/C (second compound 0.00316 µM, first compound 0.1 µM) 76.8% | viability, T/C (second compound 0.00316 µM, first compound 0.316 µM) 83.8% | viability, T/C (second compound 0.00316 µM, first compound 1 µM) 60% | viability, T/C (second compound 0.00316 µM, first compound 3.16 µM) 56.2% | viability, T/C (second compound 0.00316 µM, first compound 10 µM) 37.9% | viability, T/C (second compound 0.01 µM, first compound 0.0316 µM) 92.1% | viability, T/C (second compound 0.01 µM, first compound 0.1 µM) 82.2% | viability, T/C (second compound 0.01 µM, first compound 0.316 µM) 75.1% | viability, T/C (second compound 0.01 µM, first compound 1 µM) 72.5% | viability, T/C (second compound 0.01 µM, first compound 3.16 µM) 57.8% | viability, T/C (second compound 0.01 µM, first compound 10 µM) 42.3% | viability, T/C (second compound 0.0316 µM, first compound 0.0316 µM) 89.4% | viability, T/C (second compound 0.0316 µM, first compound 0.1 µM) 86.7% | viability, T/C (second compound 0.0316 µM, first compound 0.316 µM) 73.3% | viability, T/C (second compound 0.0316 µM, first compound 1 µM) 66.6% | viability, T/C (second compound 0.0316 µM, first compound 3.16 µM) 58.3% | viability, T/C (second compound 0.0316 µM, first compound 10 µM) 38.4% | viability, T/C (second compound 0.1 µM, first compound 0.0316 µM) 93% | viability, T/C (second compound 0.1 µM, first compound 0.1 µM) 83.6% | viability, T/C (second compound 0.1 µM, first compound 0.316 µM) 79.2% | viability, T/C (second compound 0.1 µM, first compound 1 µM) 64% | viability, T/C (second compound 0.1 µM, first compound 3.16 µM) 61.9% | viability, T/C (second compound 0.1 µM, first compound 10 µM) 43% | viability, T/C (second compound 0.316 µM, first compound 0.0316 µM) 94.4% | viability, T/C (second compound 0.316 µM, first compound 0.1 µM) 91.6% | viability, T/C (second compound 0.316 µM, first compound 0.316 µM) 78.4% | viability, T/C (second compound 0.316 µM, first compound 1 µM) 68.9% | viability, T/C (second compound 0.316 µM, first compound 3.16 µM) 65.7% | viability, T/C (second compound 0.316 µM, first compound 10 µM) 44.5% | viability, T/C (second compound 1 µM, first compound 0.0316 µM) 91% | viability, T/C (second compound 1 µM, first compound 0.1 µM) 79.2% | viability, T/C (second compound 1 µM, first compound 0.316 µM) 74.7% | viability, T/C (second compound 1 µM, first compound 1 µM) 70% | viability, T/C (second compound 1 µM, first compound 3.16 µM) 61.9% | viability, T/C (second compound 1 µM, first compound 10 µM) 45.7%
7.66 µM: IC50 (curve of first compound, second compound 0.316 µM)
3.84 µM: IC50 (curve of first compound, second compound 0.00316 µM)
5.87 µM: IC50 (curve of first compound, second compound 0.01 µM)

C=CC(=O)Nc1cc(Nc2nccc(-c3cn(C)c4ccccc34)n2)c(OC)cc1N(C)CCN(C)C
> 1 µM: IC50 (curve of compound)
inactive: viability, T/C (compound 0.00316 µM) 98.8% [middle of 4 runs] | viability, T/C (compound 0.01 µM) 92.5% [middle of 4 runs] | viability, T/C (compound 0.0316 µM) 101% [middle of 4 runs] | viability, T/C (compound 0.1 µM) 101% [middle of 4 runs] | viability, T/C (compound 0.316 µM) 96.5% [middle of 4 runs] | viability, T/C (compound 1 µM) 85.1% [middle of 4 runs]
